Tests used:
[1] = system: Escherichia coli (WP2 uvrA pKM101); assay: Bacterial mutation test, Escherichia coli; format: cell-based; details: up to 5000 pg/plate, with and without S-9
Source text: These conditions included treatments at concentrations up to […] (the maximum recommended concentration according to current regulatory guidelines), in the absence and in the presence of a rat liver metabolic activation system (S-9).

human plasma proteins = assay: 5-MeO-DMT binding to human plasma proteins, high throughput dialysis; format: in vitro ADME; details: 4-hour dialysis
Protocol: Following evaluation of the equilibration data, plasma protein binding was investigated at nominal concentrations of 0.1, 1 and 10 μM using a 4-hour dialysis time. […]

COc1ccc2[nH]cc(CCN(C)C)c2c1 [5-MeO-DMT]
induction of mutation [1]: did not induce mutation | Free Fraction in human plasma (human plasma proteins; 0.1 μM): 78.7% | Free Fraction in human plasma (human plasma proteins; 1 μM): 77.3% | Free Fraction in human plasma (human plasma proteins; 10 μM): 87.0%

— patent publication US20240108602A1, “TREATMENT OF MENTAL DISORDERS” (GH Research Ireland Limited, priority 2022, published 2024)
